Experiment: Gas chromatographic headspace measurement of fragrance compounds with and without zinc ricinoleate
Format: physicochemical
Settings: 100 ng of each fragrance chemical on a film of 0.5 g zinc ricinoleate; FIG. 4
From the text: The effect of zinc ricinoleate [Zn(Ri)2] on the partitioning of compounds into the headspace. Headspace analysis is a sampling technique in which a nonvolatile matrix (liquid or solid) is heated and volatiles are collected as they partition (migrate) into the unfilled volume of the vial (headspace). These compounds are concentrated on an adsorbent tube then injected into the chromatograph where individual compounds are separated.
A sample of volatile compounds are placed into a vial, sealed, and heated for a period of time. The volatile compounds will migrate into the gas headspace. The more volatile the compound, the more concentrated it will be in the headspace. Conversely, the less volatile components will partition into the headspace to a lesser extent thus separating components of interest from the nonvolatile sample matrix (diaper).
For each test compound, 1 microliter of a 100 nanogram/microliter (ng/μl) solution (100 ng of each fragrance chemical) is put into a vial, warmed, purged, and volatiles concentrated in an adsorbent cartridge. The cartridge is desorbed into the GC where individual compounds are separated. A second set of each of the fragrance chemicals is prepared and added to a vial where 0.5 g zinc ricinoleate has been added. […]

zinc ricinoleate
effect on headspace volatility of fragrance chemicals: reduction of volatility

Reference: patent publication US11925733B2, “Malodor counteractant composition and methods” (Bell Flavors & Fragrances, Inc., priority 2016, dated 2024)
